{"source": "patent US20050244490A1", "about": "“Dosing methods for beta-D-2',3'-dideoxy-2',3'-didehydro-5-fluorocytidine antiviral therapy” (priority 2003, published 2005)", "key": {"M184V mutant RT": {"target": "M184V mutant RT (Human immunodeficiency virus type 1 group M subtype B, UniProt P04585, M771V)", "test": "biochemical", "type": "biochemical, HIV-1", "conditions": "read-out: Ki for mutant RT"}, "wild type HIV-1 [1]": {"tested_on": "wild type HIV-1", "test": "Inhibition of wild type virus replication in MT-2 cells or PBMCs", "type": "cell-based", "conditions": "Human immunodeficiency virus 1, MT2; wild type laboratory and clinical isolates of HIV-1", "description": "The target concentration is that concentration where most mutant variants tested are suppressed by 90% or more."}, "[2]": {"test": "Cytotoxicity, MTT reduction", "type": "cell-based", "conditions": "read-out: TC50", "description": "Cytotoxicity was measured by reduction of the formazan dye MTT, which is catalyzed by mitochondrial succinate dehydrogenase."}, "HepG2 cells": {"tested_on": "HepG2 cells", "test": "Mitochondrial toxicity testing (mitDNA, rRNA, lactic acid)", "type": "cell-based", "conditions": "14 days; for % Change in Lactic Acid: normalized for cytotoxicity", "description": "HepG2 cells were incubated for 14 days with the active agent. and mitDNA and rRNA levels were determined by quantitative real-time PCR. The results are tabulated in […]"}, "[3]": {"tested_on": "mouse primary bone marrow cells", "test": "Mitochondrial toxicity in primary bone marrow cells", "type": "cell-based", "conditions": "concentrations <1 mM"}, "[4]": {"test": "Pharmacokinetics in the rhesus monkey", "type": "in vivo"}, "plasma HIV-1 RNA": {"tested_on": "plasma HIV-1 RNA", "type": "in vivo", "conditions": "for reduction of viral load: 48 hours", "description": "The study consisted of a double-blind, randomized, placebo-controlled, three-period crossover, dose escalation design in HIV-infected male subjects. Five dose levels (10, 25, 50, 100, and 200 mg) were administered in three cohort studies. Seven days elapsed between the end of one cohort and the start of the next dosing period."}, "[5]": {"conditions": "pbmc"}, "[6]": {"conditions": "human, in vivo"}, "wild type HIV-1 [7]": {"tested_on": "wild type HIV-1", "conditions": "read-out: in vitro EC90 for wild type virus; cited from earlier work"}, "clinical": {"test": "clinical", "conditions": "in vivo"}}, "note": "“And” between values parts separate entries of the source, which are not always exact repeats. Equal values may be shown once. Read-outs that look alike come from different tables or passages of the source."}
{"compound": "Nc1nc(=O)n(C2C=CC(CO)O2)cc1F", "note": "[β-D-D4FC, β-D-2′,3′-Didehydro-2′,3′-dideoxy-5-fluorocytidine]", "values": [{"measurement": "Ki", "setting": "M184V mutant RT", "value": "300 to 500", "unit": "nM"}, {"measurement": "IC90", "setting": "wild type HIV-1 [1]", "value": "855 ± 400", "unit": "nM"}, {"measurement": "CC50 at 96 h", "setting": "[2]; African green monkey, Vero cells", "value": "> 100000", "unit": "nM"}, {"measurement": "CC50 at 144 h", "setting": "[2]; PBMCs", "value": "> 100000", "unit": "nM"}, {"measurement": "CC50 at 30 h", "setting": "[2]; hamster, BHK-21 cells", "value": "> 30000", "unit": "nM"}, {"measurement": "CC50 at 24 h", "setting": "[2]; human, 293 cells", "value": "> 30000", "unit": "nM"}, {"measurement": "CC50 at 48 h", "setting": "[2]; human, Huh7 cells", "value": "> 30000", "unit": "nM"}, {"measurement": "CC50 at 72 h", "setting": "[2]; human, MT-2 cells", "value": "> 220000", "unit": "nM"}, {"measurement": "% Change in mitDNA", "setting": "HepG2 cells; 1 μM", "value": 0, "unit": "%"}, {"measurement": "% Change in rRNA", "setting": "HepG2 cells; 1 μM", "value": 0, "unit": "%"}, {"measurement": "% Change in Lactic Acid", "setting": "HepG2 cells; 1 μM", "value": "+12%"}, {"measurement": "% Change in mitDNA", "setting": "HepG2 cells; 10 μM", "value": "−1.6", "unit": "%"}, {"measurement": "% Change in rRNA", "setting": "HepG2 cells; 10 μM", "value": 0, "unit": "%"}, {"measurement": "% Change in Lactic Acid", "setting": "HepG2 cells; 10 μM", "value": "−2", "unit": "%"}, {"measurement": "mitochondrial toxicity", "setting": "[3]", "value": "not associated with mitochondrial toxicity"}, {"measurement": "plasma half-life", "setting": "[4]; compared with AZT and 3TC", "value": "longer than either AZT or 3TC"}, {"measurement": "clearance of parent", "setting": "[4]; rhesus monkey, in vivo", "value": "low clearance"}, {"measurement": "drop in viral load, subject with mutant virus L41+N103+C181+W210+D215", "setting": "plasma HIV-1 RNA; 10 mg", "value": 0.61, "unit": "log10"}, {"measurement": "reduction of viral load", "setting": "plasma HIV-1 RNA; 10 mg dose", "value": "0.42±0.2 log10 and 0.42 log10"}, {"measurement": "Change in Plasma HIV-1 RNA", "setting": "plasma HIV-1 RNA; 10 mg, 12 h", "value": "0.05 ± 0.09", "unit": "log10"}, {"measurement": "Change in Plasma HIV-1 RNA", "setting": "plasma HIV-1 RNA; 10 mg, 24 h", "value": "−0.12 ± 0.14", "unit": "log10"}, {"measurement": "Change in Plasma HIV-1 RNA", "setting": "plasma HIV-1 RNA; 10 mg, 48 h", "value": "−0.42 ± 0.20", "unit": "log10"}, {"measurement": "drop in viral load, subject with mutant virus L41+N103+C181+W210+D215", "setting": "plasma HIV-1 RNA; 25 mg", "value": 0.43, "unit": "log10"}, {"measurement": "Change in Plasma HIV-1 RNA", "setting": "plasma HIV-1 RNA; 25 mg, 12 h", "value": "0.03 ± 0.09", "unit": "log10"}, {"measurement": "Change in Plasma HIV-1 RNA", "setting": "plasma HIV-1 RNA; 25 mg, 24 h", "value": "−0.13 ± 0.10", "unit": "log10"}, {"measurement": "Change in Plasma HIV-1 RNA", "setting": "plasma HIV-1 RNA; 25 mg, 48 h", "value": "−0.34 ± 0.26", "unit": "log10"}, {"measurement": "Change in Plasma HIV-1 RNA", "setting": "plasma HIV-1 RNA; 100 mg, 12 h", "value": "−0.03 ± 0.08", "unit": "log10"}, {"measurement": "Change in Plasma HIV-1 RNA", "setting": "plasma HIV-1 RNA; 100 mg, 24 h", "value": "−0.15 ± 0.14", "unit": "log10"}, {"measurement": "Change in Plasma HIV-1 RNA", "setting": "plasma HIV-1 RNA; 100 mg, 48 h", "value": "−0.44 ± 0.17", "unit": "log10"}, {"measurement": "reduction of viral load", "setting": "plasma HIV-1 RNA; 100 mg", "value": "0.44±0.17"}, {"measurement": "Change in Plasma HIV-1 RNA", "setting": "plasma HIV-1 RNA; 200 mg, 12 h", "value": "−0.02 ± 0.24", "unit": "log10"}, {"measurement": "Change in Plasma HIV-1 RNA", "setting": "plasma HIV-1 RNA; 200 mg, 24 h", "value": "−0.06 ± 0.22", "unit": "log10"}, {"measurement": "Change in Plasma HIV-1 RNA", "setting": "plasma HIV-1 RNA; 200 mg, 48 h", "value": "−0.27 ± 0.28", "unit": "log10"}, {"measurement": "Change in Plasma HIV-1 RNA", "setting": "plasma HIV-1 RNA; 50s mg (solution), 12 h", "value": "0.00 ± 0.00", "unit": "log10"}, {"measurement": "Change in Plasma HIV-1 RNA", "setting": "plasma HIV-1 RNA; 50s mg (solution), 24 h", "value": "−0.11 ± 0.07", "unit": "log10"}, {"measurement": "Change in Plasma HIV-1 RNA", "setting": "plasma HIV-1 RNA; 50s mg (solution), 48 h", "value": "−0.44 ± 0.02", "unit": "log10"}, {"measurement": "Change in Plasma HIV-1 RNA", "setting": "plasma HIV-1 RNA; 50t mg (tablet), 12 h", "value": "0.05 ± 0.07", "unit": "log10"}, {"measurement": "Change in Plasma HIV-1 RNA", "setting": "plasma HIV-1 RNA; 50t mg (tablet), 24 h", "value": "−0.08 ± 0.07", "unit": "log10"}, {"measurement": "Change in Plasma HIV-1 RNA", "setting": "plasma HIV-1 RNA; 50t mg (tablet), 48 h", "value": "−0.46 ± 0.25", "unit": "log10"}, {"measurement": "average reduction of viral load", "setting": "plasma HIV-1 RNA; 24 hour time point", "value": "0.11±0.11"}, {"measurement": "mean reduction of viral load after a single oral dose", "setting": "plasma HIV-1 RNA; all dose levels, up to 48 hours", "value": "0.4±0.2 log10 and 0.42±0.2 log10"}, {"measurement": "mean reduction of viral load after a single oral dose", "setting": "plasma HIV-1 RNA; various dosage levels, 24 and 48 hours", "value": "approximately 40%"}, {"measurement": "Intracellular half life", "setting": "[5]", "value": "13 to 17", "unit": "h"}, {"measurement": "Intracellular [Nuc-PPP] in patients (target)", "setting": "[6]", "value": 0.5, "unit": "µM"}, {"measurement": "EC90", "setting": "wild type HIV-1 [7]", "value": "900 nM and < 1000 nM"}, {"measurement": "half-life", "setting": "clinical", "value": "6 to 15", "unit": "h"}]}
